In patent US20060247184A1, “Treatment and prophylaxis of diseases and infections pigs and poultry” (Eco Animal Health Ltd., priority 2000, published 2006):
Converted amounts (≈) assume the structure as drawn. Read-outs that look alike come from different tables or passages of the source.

Columns and labels:
[1] = tested on: Brachyspira hyodysenteriae; test: Sensitivity (MIC) for AIVLOSIN and chlortetracycline, alone and in combination; format: cell-based; details: for MIC: Brachyspira hyodysenteriae, alone; for MIC of each for combination of CTC + AIV: in combination CTC + AIV
Description: 4. Sensitivity of Bacteria for AIVLOSIN and Tetracyclines, Alone and in Combination.
Sensitivity is expressed as the lowest concentration of an antibiotic (in mcg/ml) that inhibits the growth of the test bacteria (MIC=Minimum Inhibitory Concentration).
Brachyspira Hyodysenteriae

Mycoplasma Synoviae = test: Sensitivity (MIC) for AIVLOSIN and tetracyclines, alone and in combination; format: cell-based; details: for MIC: Mycoplasmopsis synoviae, alone; for MIC of each for combination CTC + AIV: in combination CTC + AIV; for MIC of each for combination OTC + AIV: in combination OTC + AIV
[2] = tested on: Brachyspira hyodysenteriae; test: Swine dysentery animal disease model, prevention of clinical disease; format: in vivo, pigs
[3] = tested on: Brachyspira hyodysenteriae; test: Swine dysentery, treatment of clinical outbreak; format: in vivo, pigs
[4] = tested on: Brachyspira hyodysenteriae; test: In vitro MIC against Brachyspira hyodysenteriae strains (Table 2); format: cell-based
Clostridium perfringens = format: cell-based

Q: For CN(C)[C@@H]1C(O)=C(C(N)=O)C(=O)[C@@]2(O)C(O)=C3C(=O)c4c(O)ccc(Cl)c4[C@@](C)(O)[C@H]3C[C@@H]12 [CTC, chlortetracycline], which MIC ([1]; strain AF6) is on record?
A: The MIC was 0.5 µg/mL.

Q: What about the MIC ([1]; strain P265-9-97) of the same molecule?
A: Its MIC is 16 µg/mL.

Q: What about the MIC ([1]; strain P268-9-97) of the same molecule?
A: The MIC was 16 µg/mL.

Q: And the MIC ([1]; strain P578-6-97)?
A: Its MIC is 16 µg/mL.

Q: What about the “MIC of each for combination of CTC + AIV” value ([1]; strain AF6) of the same molecule?
A: Its value is 0.125 µg/mL.

Q: What about the “MIC of each for combination of CTC + AIV” value ([1]; strain P265-9-97) of the same molecule?
A: Its value is 4.0 µg/mL.

Q: What about the “MIC of each for combination of CTC + AIV” value ([1]; strain P268-9-97) of the same molecule?
A: Its value is 8.0 µg/mL.

Q: What about the “MIC of each for combination of CTC + AIV” value ([1]; strain P578-6-97) of the same molecule?
A: The value was 8.0 µg/mL.

Q: And the MIC (Mycoplasma Synoviae; strain 173)?
A: The MIC was 0.78 µg/mL.

Q: And the MIC (Mycoplasma Synoviae; strain 185)?
A: Its MIC is 0.78 µg/mL.

Q: And the MIC (Mycoplasma Synoviae; strain 211)?
A: The MIC was 0.39 µg/mL.

Q: What about the MIC (Mycoplasma Synoviae; strain 312) of the same molecule?
A: Its MIC is 3.12 µg/mL.

Q: And the MIC (Mycoplasma Synoviae; strain wvu 1835)?
A: Its MIC is 0.39 µg/mL.

Q: And the “MIC of each for combination CTC + AIV” value (Mycoplasma Synoviae; strain 173)?
A: The value was 0.1 µg/mL.

Q: What about the “MIC of each for combination CTC + AIV” value (Mycoplasma Synoviae; strain 185) of the same molecule?
A: The value was 0.1 µg/mL.

Q: And the “MIC of each for combination CTC + AIV” value (Mycoplasma Synoviae; strain 211)?
A: Its value is 0.1 µg/mL.

Q: What about the “MIC of each for combination CTC + AIV” value (Mycoplasma Synoviae; strain 312) of the same molecule?
A: Its value is 0.1 µg/mL.

Q: What about the “MIC of each for combination CTC + AIV” value (Mycoplasma Synoviae; strain wvu 1835) of the same molecule?
A: Its value is 0.1 µg/mL.

Q: For CN(C)[C@@H]1C(O)=C(C(N)=O)C(=O)[C@@]2(O)C(O)=C3C(=O)c4c(O)cccc4[C@@](C)(O)[C@H]3[C@H](O)[C@@H]12 [OTC, oxytetracycline], which MIC (Mycoplasma Synoviae; strain 173) is on record?
A: Its MIC is 0.39 µg/mL.

Q: And the MIC (Mycoplasma Synoviae; strain 185)?
A: Its MIC is 0.2 µg/mL.

Q: And the MIC (Mycoplasma Synoviae; strain 211)?
A: Its MIC is 0.39 µg/mL.

Q: What about the MIC (Mycoplasma Synoviae; strain 312) of the same molecule?
A: The MIC was 0.78 µg/mL.

Q: And the MIC (Mycoplasma Synoviae; strain wvu 1835)?
A: Its MIC is 0.39 µg/mL.

Q: What about the “MIC of each for combination OTC + AIV” value (Mycoplasma Synoviae; strain 173) of the same molecule?
A: Its value is 0.1 µg/mL.

Q: And the “MIC of each for combination OTC + AIV” value (Mycoplasma Synoviae; strain 185)?
A: The value was 0.1 µg/mL.

Q: What about the “MIC of each for combination OTC + AIV” value (Mycoplasma Synoviae; strain 211) of the same molecule?
A: Its value is 0.1 µg/mL.

Q: And the “MIC of each for combination OTC + AIV” value (Mycoplasma Synoviae; strain 312)?
A: Its value is 0.1 µg/mL.

Q: What about the “MIC of each for combination OTC + AIV” value (Mycoplasma Synoviae; strain wvu 1835) of the same molecule?
A: The value was 0.1 µg/mL.

Q: With C=C[C@]1(C)C[C@@H](OC(=O)CSCCN(CC)CC)[C@]2(C)[C@H](C)CC[C@]3(CCC(=O)[C@H]32)[C@@H](C)[C@@H]1O [Tiamulin, tiamulin] as the molecule, how does the “Period for which the drug needs to be provided to prevent an outbreak” value ([2]; artificially infected pigs) read?
A: The value was “whole period in which the pigs are at risk”.

Q: And the “Mean days to clear B.Hyo” value ([3]; 100 ppm 10 days)?
A: The value was 5.8 days.

Q: And the “Mean days to recovery” value ([3]; 100 ppm 10 days)?
A: Its value is 4.4 days.

Q: And the “Mean score at start” value ([3]; 100 ppm 10 days, clinical scoring 0 = normal, 6 = moribund, baseline)?
A: The value was 4.0.

Q: For CC[C@H]1OC(=O)C[C@@H](O)[C@H](C)[C@@H](O[C@@H]2O[C@H](C)[C@@H](O[C@H]3C[C@@](C)(O)[C@@H](O)[C@H](C)O3)[C@H](N(C)C)[C@H]2O)[C@@H](CC=O)C[C@@H](C)C(=O)/C=C/C(C)=C/[C@@H]1CO[C@@H]1O[C@H](C)[C@@H](O)[C@@H](OC)[C@H]1OC [Tylosin, tylosin], which MIC ([4]; strain AF 6/80) is on record?
A: Its MIC is 6.25 µg/mL (≈ 6.82 µM).

Q: And the MIC ([4]; strain PI8A)?
A: The MIC was greater than 200 µg/mL.

Q: What about the MIC ([4]; strain PO268-07.98) of the same molecule?
A: Its MIC is greater than 200 µg/mL.

Q: What about the “Period for which the drug needs to be provided to prevent an outbreak” value ([2]; pig, in vivo) of the same molecule?
A: The value was no less than 21 days.

Q: And the “Mean days to clear B.Hyo” value ([3]; 100 ppm 21 days)?
A: Its value is 3.0 days.

Q: What about the “Mean days to recovery” value ([3]; 100 ppm 21 days) of the same molecule?
A: Its value is 2.1 days.

Q: What about the “Mean score at start” value ([3]; 100 ppm 21 days) of the same molecule?
A: The value was 3.7.

Q: What does the source list for zinc bacitracin?
A: MIC (Clostridium perfringens; strain 378): 3.125 µg/mL; MIC (Clostridium perfringens; strain 389): 1.56 µg/mL; MIC (Clostridium perfringens; strain 392): 1.56 µg/mL; MIC (Clostridium perfringens; strain 395): 3.125 µg/mL; MIC (Clostridium perfringens; strain 410): 3.125 µg/mL; MIC (Clostridium perfringens; strain 412): 6.25 µg/mL; MIC (Clostridium perfringens; strain 413): 6.25 µg/mL
